Measurements as given in ChEMBL document CHEMBL1201862, “PubChem BioAssay data set” (2004).
Activity calls are given as the source filed them.

What was measured:
[1] = viability of uninfected HEp-2 cells – cell-based, HTS, cytotoxicity control for RSV inhibitor project, dose response (AID 2410); type: functional; conditions: human respiratory syncytial virus
[2] = molecular target: Tyrosyl-DNA phosphodiesterase 2 (Homo sapiens, UniProt O95551); assay: potency against TDP2 phosphodiesterase activity – biochemical, epi absorbance, IC50, dose response (AID 743297)
[3] = test system: Vero; assay: viability of Vero cells under compound – cytotoxicity control for flavivirus capping enzyme inhibitors (AID 588742); type: functional; conditions: Chlorocebus sabaeus
[4] = molecular target: Beta-arrestin-1 (Homo sapiens, UniProt P49407); assay: beta-arrestin/AP2 interaction blockers, potency – biochemical, cherry pick 1, beta2-adaptin appendage, flow cytometry, dose response (AID 588783); type: functional
[5] = molecular target: Genome polyprotein (dengue virus type 2, UniProt P29990); assay: flavivirus cap methylation enzyme inhibition – biochemical, confirmation dose response, primary screen (AID 588689); type: functional
[6] = molecular target: Eukaryotic translation initiation factor 4E (Mus musculus, UniProt P63073); assay: blockers of eIF4G binding by eIF4E – biochemical, TR-FRET, dose response (AID 855); type: functional;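 also: potency for disrupting eIF4E binding to eIF4GI seen as loss of FRET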
[7] = blockers of CAL PDZ ligand groove binding – biochemical, fluorescence polarization, untagged CAL PDZ, cherry-pick, dose response (AID 602267); type: functional
[8] = molecular target: Beta-galactosidase (Escherichia coli, UniProt Q8VNN2); assay: detection-enzyme interference by beta-gal modulators – biochemical, E. coli enzyme, set 3, artefact control for CCR6 antagonist project, dose response (AID 504712); type: functional
[9] = test system: INS1; assay: INS-1E survival protection against cytokine death – cell-based, luminescence, retest, dose response (AID 449756); type: functional; conditions: Rattus norvegicus;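 also: cell death triggered by IL-1 beta plus TNF-alpha plus IFN-gamma mixture; protective hits raise ATP signal compared with cytokine alone wells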
[10] = molecular target: Keap1/Nrf2 (Homo sapiens, UniProt Q14145); assay: disruptors of Keap1 binding to Nrf2 peptide – biochemical, fluorescence polarization, cherry-picked samples, dose response (AID 588683)
Sequence of Keap1/Nrf2 (Q16236 whole entry): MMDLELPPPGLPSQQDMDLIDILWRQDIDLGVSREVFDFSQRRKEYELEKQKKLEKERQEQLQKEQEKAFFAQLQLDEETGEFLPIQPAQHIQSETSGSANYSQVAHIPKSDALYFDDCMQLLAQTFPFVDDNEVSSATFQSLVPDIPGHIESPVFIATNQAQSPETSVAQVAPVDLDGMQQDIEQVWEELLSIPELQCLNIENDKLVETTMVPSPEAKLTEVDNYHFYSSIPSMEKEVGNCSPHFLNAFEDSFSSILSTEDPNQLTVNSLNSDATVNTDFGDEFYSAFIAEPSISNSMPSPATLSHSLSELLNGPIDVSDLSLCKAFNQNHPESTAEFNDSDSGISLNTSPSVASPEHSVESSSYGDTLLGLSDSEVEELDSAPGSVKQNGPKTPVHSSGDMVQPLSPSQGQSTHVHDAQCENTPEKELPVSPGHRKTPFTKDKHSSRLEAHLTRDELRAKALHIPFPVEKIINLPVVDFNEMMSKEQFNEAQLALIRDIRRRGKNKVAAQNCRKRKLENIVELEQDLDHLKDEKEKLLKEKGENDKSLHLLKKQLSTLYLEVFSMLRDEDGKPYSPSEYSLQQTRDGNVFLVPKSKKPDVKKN
Sequence of Keap1/Nrf2 (Q14145 whole entry): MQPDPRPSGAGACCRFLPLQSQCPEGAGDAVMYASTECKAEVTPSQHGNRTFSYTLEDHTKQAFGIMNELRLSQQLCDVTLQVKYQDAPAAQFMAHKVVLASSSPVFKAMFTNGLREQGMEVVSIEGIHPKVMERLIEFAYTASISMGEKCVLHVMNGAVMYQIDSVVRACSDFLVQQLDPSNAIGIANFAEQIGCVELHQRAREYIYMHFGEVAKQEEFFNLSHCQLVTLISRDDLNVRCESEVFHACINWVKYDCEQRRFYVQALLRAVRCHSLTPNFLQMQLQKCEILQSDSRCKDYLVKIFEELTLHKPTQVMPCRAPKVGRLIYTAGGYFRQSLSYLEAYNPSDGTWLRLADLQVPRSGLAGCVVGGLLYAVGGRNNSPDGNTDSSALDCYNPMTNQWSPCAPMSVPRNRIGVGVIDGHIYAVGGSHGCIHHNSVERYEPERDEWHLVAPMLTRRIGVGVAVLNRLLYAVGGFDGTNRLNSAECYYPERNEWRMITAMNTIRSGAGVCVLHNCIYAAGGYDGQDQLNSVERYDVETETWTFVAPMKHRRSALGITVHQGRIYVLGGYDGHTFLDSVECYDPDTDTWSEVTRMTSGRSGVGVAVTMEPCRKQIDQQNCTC

Sequence of Beta-galactosidase (Q8VNN2 whole entry): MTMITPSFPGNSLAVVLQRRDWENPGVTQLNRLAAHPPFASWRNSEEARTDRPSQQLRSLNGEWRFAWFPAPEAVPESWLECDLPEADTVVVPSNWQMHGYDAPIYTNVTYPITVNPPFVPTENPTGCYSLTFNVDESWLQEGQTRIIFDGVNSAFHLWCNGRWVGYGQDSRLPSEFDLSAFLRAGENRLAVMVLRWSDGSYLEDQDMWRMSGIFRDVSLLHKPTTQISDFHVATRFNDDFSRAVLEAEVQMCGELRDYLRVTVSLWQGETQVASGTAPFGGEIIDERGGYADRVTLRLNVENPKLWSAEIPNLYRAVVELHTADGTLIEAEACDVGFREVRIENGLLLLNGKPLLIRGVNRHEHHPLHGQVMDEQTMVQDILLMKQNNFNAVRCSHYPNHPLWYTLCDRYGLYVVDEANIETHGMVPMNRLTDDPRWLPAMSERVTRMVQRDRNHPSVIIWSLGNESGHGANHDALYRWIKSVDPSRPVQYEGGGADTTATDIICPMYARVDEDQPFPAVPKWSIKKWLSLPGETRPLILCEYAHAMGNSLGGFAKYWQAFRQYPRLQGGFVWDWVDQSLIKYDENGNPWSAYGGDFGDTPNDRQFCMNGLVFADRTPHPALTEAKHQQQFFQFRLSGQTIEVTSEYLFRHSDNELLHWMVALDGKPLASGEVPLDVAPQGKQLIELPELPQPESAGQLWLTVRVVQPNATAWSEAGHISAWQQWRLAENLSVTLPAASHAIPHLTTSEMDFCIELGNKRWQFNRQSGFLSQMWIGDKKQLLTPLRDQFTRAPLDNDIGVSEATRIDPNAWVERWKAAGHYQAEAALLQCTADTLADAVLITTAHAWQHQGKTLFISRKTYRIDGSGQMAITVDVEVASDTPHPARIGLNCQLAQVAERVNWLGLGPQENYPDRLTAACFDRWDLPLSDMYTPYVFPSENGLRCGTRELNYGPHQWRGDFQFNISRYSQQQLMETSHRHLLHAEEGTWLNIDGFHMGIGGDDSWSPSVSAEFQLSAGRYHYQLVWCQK
Sequence of Tyrosyl-DNA phosphodiesterase 2 (O95551 whole entry): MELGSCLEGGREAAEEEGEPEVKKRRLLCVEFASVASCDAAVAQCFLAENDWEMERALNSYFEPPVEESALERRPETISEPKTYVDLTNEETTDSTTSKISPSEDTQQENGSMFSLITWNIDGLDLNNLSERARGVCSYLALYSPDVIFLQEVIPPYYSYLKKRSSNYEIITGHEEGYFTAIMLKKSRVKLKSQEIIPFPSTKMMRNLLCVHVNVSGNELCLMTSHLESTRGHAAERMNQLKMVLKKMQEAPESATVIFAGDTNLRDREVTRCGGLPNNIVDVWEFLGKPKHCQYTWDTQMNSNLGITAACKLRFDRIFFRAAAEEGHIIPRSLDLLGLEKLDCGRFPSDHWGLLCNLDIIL
Sequence of Beta-arrestin-1 (P49407 whole entry): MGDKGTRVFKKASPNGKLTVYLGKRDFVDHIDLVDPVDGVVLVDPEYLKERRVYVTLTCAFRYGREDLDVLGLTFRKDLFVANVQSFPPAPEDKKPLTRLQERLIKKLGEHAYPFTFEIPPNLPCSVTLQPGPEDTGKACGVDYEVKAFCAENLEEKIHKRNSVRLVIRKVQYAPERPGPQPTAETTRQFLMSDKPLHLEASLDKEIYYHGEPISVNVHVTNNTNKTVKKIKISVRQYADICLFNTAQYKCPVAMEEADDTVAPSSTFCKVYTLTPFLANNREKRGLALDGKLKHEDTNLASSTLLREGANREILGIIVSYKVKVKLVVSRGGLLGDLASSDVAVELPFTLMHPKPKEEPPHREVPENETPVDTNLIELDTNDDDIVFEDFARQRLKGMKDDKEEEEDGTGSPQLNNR
Sequence of Eukaryotic translation initiation factor 4E (P63073 whole entry): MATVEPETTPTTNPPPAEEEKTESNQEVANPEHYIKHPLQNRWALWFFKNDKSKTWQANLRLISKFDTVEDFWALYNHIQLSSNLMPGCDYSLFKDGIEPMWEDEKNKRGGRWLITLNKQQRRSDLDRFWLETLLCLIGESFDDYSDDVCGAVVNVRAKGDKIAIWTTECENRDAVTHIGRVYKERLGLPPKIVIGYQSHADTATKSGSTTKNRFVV
Sequence of Genome polyprotein (P29990 2492-3391 limits assumed): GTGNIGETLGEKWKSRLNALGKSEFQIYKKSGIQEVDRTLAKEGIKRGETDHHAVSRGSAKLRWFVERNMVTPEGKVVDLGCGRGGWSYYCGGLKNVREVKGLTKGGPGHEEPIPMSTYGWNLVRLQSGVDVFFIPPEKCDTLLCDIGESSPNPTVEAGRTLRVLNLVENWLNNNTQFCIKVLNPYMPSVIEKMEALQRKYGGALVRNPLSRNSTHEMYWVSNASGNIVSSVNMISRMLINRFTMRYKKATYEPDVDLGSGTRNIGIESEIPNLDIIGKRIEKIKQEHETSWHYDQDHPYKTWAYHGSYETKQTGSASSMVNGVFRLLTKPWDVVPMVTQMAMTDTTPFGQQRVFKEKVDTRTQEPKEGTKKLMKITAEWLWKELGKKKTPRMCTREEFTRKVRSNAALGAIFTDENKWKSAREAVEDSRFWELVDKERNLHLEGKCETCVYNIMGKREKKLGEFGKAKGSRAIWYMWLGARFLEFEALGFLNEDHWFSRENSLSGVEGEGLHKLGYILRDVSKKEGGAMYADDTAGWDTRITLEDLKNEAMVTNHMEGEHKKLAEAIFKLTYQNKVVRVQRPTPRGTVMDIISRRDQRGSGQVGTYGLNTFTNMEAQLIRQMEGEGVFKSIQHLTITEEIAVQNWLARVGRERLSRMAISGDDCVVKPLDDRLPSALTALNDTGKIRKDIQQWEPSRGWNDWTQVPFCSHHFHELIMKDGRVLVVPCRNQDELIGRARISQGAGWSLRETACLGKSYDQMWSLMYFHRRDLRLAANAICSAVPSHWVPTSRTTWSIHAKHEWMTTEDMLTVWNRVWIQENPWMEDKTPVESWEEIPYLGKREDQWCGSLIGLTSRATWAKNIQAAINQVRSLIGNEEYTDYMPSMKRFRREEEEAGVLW

For `NC(=O)C1CCN(C2=C(Cl)C(=O)c3ccccc3C2=O)CC1`, the CC50 [1] was 7.88 µM (active), the IC50 [2] was 13.6 µM (inactive) and the CC50 [3] was 22.3 µM (active). For the same compound, the IC50 [4] was 22.2 µM (inactive) and the IC50 [5] was 26 µM (active).

For `O=c1c2ccccc2nc(/C=C/c2cccnc2)n1Cc1ccccc1`, the IC50 [6] was 5.77 µM (active) and the AC50 [7] was 91.1 µM (active).

For `COC(=O)c1ccccc1NC1=C/C(=N\S(=O)(=O)c2ccc(C(=O)O)cc2)c2ccccc2C1=O`, the IC50 [8] was > 66.6 µM (inactive), the AC50 [9] was 3.34 µM (active) and the AC50 [10] was > 52 µM (inactive).
